{"source": "patent US20250205467A1", "about": "“SYSTEMS AND METHODS FOR THE TREATMENT OF CANCER USING ULTRASOUND” (Duke University, priority 2022, published 2025)", "key": {"[1]": {"test_system": "MM3MG-ESR1mut (Y537N, Y537S, D538G)", "test": "Response of MM3MG-ESR1mut cells to standard endocrine therapies", "type": "cell-based, mouse", "settings": "data not shown", "experimental": "Using DNA deep-sequencing technology, recent studies have identified several conserved mutations to the […] of ESR1 in a significant proportion (˜30-40%) of endocrine-resistant metastatic ER+ breast cancer patients. As no established models of endocrine-resistant ER+ breast cancer existed in immunocompetent mice, an ER+ endocrine resistant breast cancer cell line model was generated that would grow in immune competent syngeneic animals. MM3MG cells were artificially transformed with wild-type or mutated human ESR1 (Y537N, Y537S, D538G).\nTherefore, the established murine breast cancer cell lines, MM3MG-ESR1mut (Y537N, Y537S, D538G), simulate patients' metastatic ER+ breast cancers, that are endocrine-resistant, having ESR1 gene mutation, and behave more aggressively."}, "4T1 tumors": {"test_system": "4T1 tumors", "settings": "combined with thermal ablative focused ultrasound; CD8 and CD4 T cell-dependent; cited from earlier work"}, "[2]": {"test_system": "pre-treated locally advanced or recurrent TNBC", "test": "Single arm, prospective clinical trial of intratumoral pIL-12 (TAVO) monotherapy (OMS-140)", "type": "in vivo, human", "settings": "one patient previously unresponsive to anti-PD1; after 1 cycle of IL-12 treatment and 3 months of therapy", "experimental": "The clinical safety of the therapy was tested in a single arm, prospective clinical trial of intratumoral pIL-12 (TAVO) monotherapy (OMS-140) in pre-treated locally advanced or recurrent TNBC."}}, "data": [{"compound": "CC/C(=C(\\c1ccccc1)c1ccc(OCCN(C)C)cc1)c1ccccc1", "note": "[Tamoxifen]", "values": [{"measurement": "sensitivity of the cells to standard endocrine therapies", "setting": "[1]", "result": "completely resistant"}]}, {"compound": "Nc1ccn([C@@H]2O[C@H](CO)[C@@H](O)C2(F)F)c(=O)n1", "note": "[gemcitabine]", "values": [{"measurement": "tumor control and survival of mice", "setting": "4T1 tumors", "result": "enhanced tumor control and improved survival"}]}, {"compound": "nivolumab", "values": [{"measurement": "clinical response of lung metastases", "setting": "[2]", "result": "profound clinical response"}]}]}
